According to PubChem BioAssay (NCI):
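Cultured in 96-well plates, cells were exposed to test compound for 48 hours across five concentrations. The concentration for 50% growth inhibition is given as GI50. TGI: concentration producing complete growth inhibition.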

Key:
Experiment in all cases: DTP human tumour cell line panel, 48 h
[1] = system: OVCAR-5 ovarian
[2] = system: NCI-H23 lung
[3] = system: SK-MEL-2 melanoma
[4] = system: SF-539 CNS
[5] = system: HT29 colon
[6] = system: SK-OV-3 ovarian
[7] = system: T-47D breast
[8] = system: SN12C renal
[9] = system: SK-MEL-5 melanoma
[10] = system: TK-10 renal
[11] = system: MDA-MB-435
[12] = system: SNB-19 CNS
[13] = system: UACC-62 melanoma
[14] = system: PC-3 prostate
[15] = system: U251 CNS
[16] = system: NCI/ADR-RES ovarian
[17] = system: IGROV1 ovarian
[18] = system: KM12 colon
[19] = system: RPMI-8226 leukemia
[20] = system: A498 renal
[21] = system: A549 NSCLC
[22] = system: HS 578T breast
[23] = system: HCT-116 colon
[24] = system: NCI-H226 lung
[25] = system: OVCAR-8 ovarian
[26] = system: HL-60(TB) leukemia
[27] = system: SW-620 colon
[28] = system: HOP-62 NSCLC
[29] = system: CCRF-CEM leukemia
[30] = system: DU-145 prostate
[31] = system: RXF 393 renal
[32] = system: SK-MEL-28 melanoma
[33] = system: NCI-H522 lung
[34] = system: MALME-3M melanoma
[35] = system: 786-0 renal
[36] = system: OVCAR-3 ovarian
[37] = system: MOLT-4 leukemia
[38] = system: SNB-75 CNS
[39] = system: COLO 205 colon
[40] = system: CAKI-1 renal
[41] = system: HOP-92 NSCLC
[42] = system: M14 melanoma
[43] = system: SF-295 CNS
[44] = system: EKVX NSCLC
[45] = system: NCI-H460 lung
[46] = system: MDA-MB-231 breast
[47] = system: UACC-257 melanoma
[48] = system: HCC-2998 colon
[49] = system: BT-549 breast
[50] = system: OVCAR-4 ovarian
[51] = system: MCF7 breast
[52] = system: UO-31 renal
[53] = system: SR leukemia
[54] = system: SF-268 CNS
[55] = system: LOX IMVI melanoma
[56] = system: HCT-15 colon
[57] = system: K-562 leukemia
[58] = system: ACHN renal

Question: Which results are given for `CN(c1ccc(F)cc1)S(=O)(=O)c1ccc(-c2cnc(C3CC3)o2)cc1`?
Answer: GI50 [1]: 495 nM; TGI [1]: > 100000 nM; GI50 [2]: 358 nM; TGI [2]: > 100000 nM; GI50 [3]: 3740 nM; TGI [3]: 40900 nM; GI50 [4]: 71.8 nM; TGI [4]: 1870 nM; GI50 [5]: 44.3 nM; TGI [5]: 14600 nM; GI50 [6]: 2520 nM; TGI [6]: > 94600 nM; GI50 [7]: 75.9 nM; TGI [7]: 71300 nM; GI50 [8]: 887 nM; TGI [8]: 39100 nM; GI50 [9]: 84.2 nM; TGI [9]: 5920 nM; GI50 [10]: 26400 nM; TGI [10]: > 100000 nM; GI50 [11]: 28.4 nM; TGI [11]: 94.8 nM; GI50 [12]: 102 nM; TGI [12]: > 100000 nM; GI50 [13]: 48.1 nM; TGI [13]: 19500 nM; GI50 [14]: 136 nM; TGI [14]: > 67800 nM; GI50 [15]: 69.4 nM; TGI [15]: > 39100 nM; GI50 [16]: 57.4 nM; TGI [16]: 21400 nM; GI50 [17]: 66 nM; TGI [17]: > 100000 nM; GI50 [18]: 54.5 nM; TGI [18]: 32200 nM; GI50 [19]: 60.6 nM; TGI [19]: 2510 nM; GI50 [20]: 43 nM; TGI [20]: 493 nM; GI50 [21]: 180 nM; TGI [21]: > 100000 nM; GI50 [22]: 176 nM; TGI [22]: > 100000 nM; GI50 [23]: 41.3 nM; GI50 [24]: 239 nM; TGI [24]: 30800 nM; GI50 [25]: 553 nM; TGI [25]: > 100000 nM; GI50 [26]: 28.8 nM; TGI [26]: 306 nM; GI50 [27]: 66.4 nM; TGI [27]: > 100000 nM; GI50 [28]: 145 nM; TGI [28]: > 100000 nM; GI50 [29]: 51.8 nM; TGI [29]: > 100000 nM; GI50 [30]: 279 nM; TGI [30]: > 76700 nM; GI50 [31]: 69.8 nM; TGI [31]: 366 nM; GI50 [32]: 2600 nM; TGI [32]: > 100000 nM; GI50 [33]: 78.9 nM; TGI [33]: 1700 nM; GI50 [34]: 11600 nM; TGI [34]: 47600 nM; GI50 [35]: 108 nM; TGI [35]: > 41700 nM; GI50 [36]: 41.5 nM; TGI [36]: 15800 nM; GI50 [37]: 80.6 nM; TGI [37]: > 37500 nM; GI50 [38]: 12.4 nM; TGI [38]: 25800 nM; GI50 [39]: 98.8 nM; TGI [39]: 2400 nM; GI50 [40]: 73.3 nM; TGI [40]: > 100000 nM; GI50 [41]: 1210 nM; TGI [41]: 11300 nM; GI50 [42]: 52 nM; TGI [42]: 19800 nM; GI50 [43]: 52 nM; TGI [43]: 25100 nM; GI50 [44]: 289 nM; TGI [44]: > 100000 nM; GI50 [45]: 46.9 nM; TGI [45]: 13300 nM; GI50 [46]: 404 nM; TGI [46]: > 39000 nM; GI50 [47]: 11100 nM; TGI [47]: 52600 nM; GI50 [48]: 375 nM; TGI [48]: > 50100 nM; GI50 [49]: 410 nM; TGI [49]: 14100 nM; GI50 [50]: 772 nM; TGI [50]: > 100000 nM; GI50 [51]: 39.6 nM; TGI [51]: 50900 nM; GI50 [52]: 766 nM; TGI [52]: > 94100 nM; GI50 [53]: 31.5 nM; GI50 [54]: 1120 nM; TGI [54]: > 100000 nM; GI50 [55]: 69 nM; TGI [55]: 14100 nM; GI50 [56]: 49.9 nM; TGI [56]: > 50000 nM; GI50 [57]: 39.5 nM; TGI [57]: > 43800 nM; GI50 [58]: 274 nM; TGI [58]: > 73100 nM
